Test [1] deals with nuclear factor-kappa B (NF-kB)-inducing kinase (NIK) (Homo sapiens (Human), UniProt Q99558). Nature of the test: NIK Enzyme Inhibition Assay (Transcreener ADP fluorescence polarization). The conditions noted are these: read-out: NIK ADP-FP (Ki uM). Format: biochemical. An outline of the steps: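 Baculovirus/insect-cell-expressed NIK (0.2-1 nM) incubated with compounds 1-3.5 h at 10 uM ATP. Buffer: 50 mM HEPES pH 7.2, 10 mM MgCl2, 2 mM DTT, 1% DMSO. ADP detected by Transcreener fluorescence polarization (ADP antibody, AlexaFluor 633 tracer) after EDTA quench.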
For orientation: Polarisation of emitted light reports the rotation of a fluorescent probe.

Test [2] relates to REL-A (p65) nuclear translocation in HeLa cells. Kind of test: REL-A nuclear translocation assay (classical NF-kB signaling), high content imaging. Format: cell-based. The following applies: Homo sapiens, HeLa, compounds 4.5 hours, then 10 ng/mL TNF-α for 30 minutes, read-out: REL-A HeLa Transloc Assay (IC50). The method, boiled down: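 HeLa cells in 10% FBS medium preincubated with compounds (0.2% DMSO final) for 4.5 hours, then stimulated with 10 ng/mL TNF-α for 30 minutes. Fixed cells stained with 400 ng/mL anti-REL-A antibody, Alexa488 secondary and DRAQ5; translocation quantified by imaging as nuclear to cytoplasmic signal ratio.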

The test system of test [3] is p52 (NF-kB2) nuclear translocation in HeLa cells. Kind of test: p52 nuclear translocation assay (non-classical NF-kB signaling), high content imaging. The format is cell-based. The following applies: Homo sapiens, HeLa, 5 h, 100 ng/mL anti-lymphotoxin beta receptor antibody for 5 hours, read-out: p52 HeLa Transloc Assay (IC50). The method, boiled down: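 HeLa cells in 10% FBS medium were treated with compound (0.2% DMSO final), then stimulated 5 h with 100 ng/mL anti-lymphotoxin beta receptor antibody. After fixation, cells were immunostained for p52 (2 ug/mL antibody) with DRAQ5 nuclear stain and imaged by high-content imaging. IC50 in µM was derived from the nuclear/cytoplasmic signal ratio.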

[4] abbreviates: purified NIK 0.2-1 nM, 10 uM ATP, Morrison's quadratic equation.

The text below walks through data of patent US9034866B2 (Genentech, Inc., priority 2012, dated 2015).

Structures are written as SMILES. Like-named read-outs stand apart in the source and are kept apart here. Some results are limits rather than exact numbers.

Sequence of nuclear factor-kappa B (NF-kB)-inducing kinase (NIK) (Q99558 whole entry): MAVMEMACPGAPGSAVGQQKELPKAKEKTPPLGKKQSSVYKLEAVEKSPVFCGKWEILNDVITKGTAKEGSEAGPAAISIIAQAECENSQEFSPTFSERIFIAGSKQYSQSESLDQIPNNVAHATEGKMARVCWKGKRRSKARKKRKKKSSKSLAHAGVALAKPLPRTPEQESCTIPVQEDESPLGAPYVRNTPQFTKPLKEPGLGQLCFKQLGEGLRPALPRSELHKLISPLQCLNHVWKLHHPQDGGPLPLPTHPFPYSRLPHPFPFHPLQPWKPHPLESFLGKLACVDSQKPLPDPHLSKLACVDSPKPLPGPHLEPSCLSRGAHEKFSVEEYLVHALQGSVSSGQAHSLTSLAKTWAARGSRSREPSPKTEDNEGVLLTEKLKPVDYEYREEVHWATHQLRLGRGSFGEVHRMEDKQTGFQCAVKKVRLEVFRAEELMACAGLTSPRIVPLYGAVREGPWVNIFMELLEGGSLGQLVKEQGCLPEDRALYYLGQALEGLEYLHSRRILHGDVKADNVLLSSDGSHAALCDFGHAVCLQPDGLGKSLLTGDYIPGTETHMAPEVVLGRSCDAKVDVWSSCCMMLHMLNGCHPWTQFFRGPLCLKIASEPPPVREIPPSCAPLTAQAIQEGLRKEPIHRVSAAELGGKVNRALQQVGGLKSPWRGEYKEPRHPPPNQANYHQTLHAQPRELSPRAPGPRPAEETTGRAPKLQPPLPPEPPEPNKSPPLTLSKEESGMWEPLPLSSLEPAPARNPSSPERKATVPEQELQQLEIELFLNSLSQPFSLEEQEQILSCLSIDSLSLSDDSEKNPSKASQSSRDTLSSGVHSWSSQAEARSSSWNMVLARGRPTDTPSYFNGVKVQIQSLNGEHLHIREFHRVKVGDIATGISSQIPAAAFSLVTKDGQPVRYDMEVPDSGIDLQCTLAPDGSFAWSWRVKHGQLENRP

For orientation: Ki means a dissociation constant, usually derived from enzyme kinetics or from competition with a known ligand. The IC50 is the concentration needed to halve the response being measured. Regarding `Cc1nc([C@](C)(O)C#Cc2cc3c(cc2F)C2CC(C2)n2c-3nc(C(N)=O)c2C(F)(F)F)no1` (racemic), in test [1] (setting [4]), the Ki amounted to 0.0072 µM. For the same compound, the IC50 is above 20000 nM in test [2] and 2300 nM in test [3].
The matching figures for `Cc1cc([C@](C)(O)C#Cc2cc3c(cc2F)OCCn2c-3nc(C(N)=O)c2-c2cnn(CC(C)(C)O)c2)no1` (racemic): 0.00127 µM, above 20000 nM and 1800 nM.
The matching figures for `C[C@@](O)(C#Cc1cc2c(cc1F)OCCn1c-2nc(C(N)=O)c1-c1nc(C2CC2)n[nH]1)c1ncccn1`: 0.0047 µM, above 20000 nM and 1600 nM.
The matching figures for `Cc1nc([C@](C)(O)C#Cc2cc3c(cc2F)C2CC(C2)c2c-3nc(C(N)=O)n2C)no1`: 0.0005 µM, above 20000 nM and 835 nM.
As for `CC(O)(C#Cc1cc2c(cc1F)OCCn1cc(C(N)=O)nc1-2)CF` (racemic) [Example 75], in test [1] (setting [4]), the Ki came to 0.008 µM. The IC50 in test [2] was 20000 nM; in test [3], 3800 nM.
The like results for `Cn1nccc1C(O)c1c(C(N)=O)nc2n1CCOc1cc(F)c(C#CC(C)(C)O)cc1-2` (racemic) were, in that order, 0.0015 µM, above 20000 nM and 2400 nM.
As to `C[C@@](O)(C#Cc1cc2c(cc1F)C1CC(C1)c1[nH]c(C(N)=O)nc1-2)c1ncccn1`, the Ki in test [1] (setting [4]) is 0.0026 µM. The IC50 in test [2] was above 20000 nM; in test [3], 1700 nM.
The matching figures for `CC(C)(O)C#Cc1cc2c(cc1F)C1CC(C1)n1c-2nc(C(N)=O)c1-c1nc(C2CC2)n[nH]1`: 0.0013 µM, above 20000 nM and 3600 nM.
The like results for `Cc1cc([C@](C)(O)C#Cc2ccc3c(c2)-c2nc(C(N)=O)c(CC4(C)COC4)n2C2CC3C2)no1` (racemic) were, in that order, 0.0012 µM, above 20000 nM and 740 nM.
The like results for `CC(C)(O)C#Cc1cc2c(cc1F)C1CC(C1)n1c-2nc(C(N)=O)c1C1CN(C(=O)OC(C)(C)C)C1` (racemic) were, in that order, 0.0077 µM, above 20000 nM and 1800 nM.
On to `Cn1c(C(N)=O)nc2c1C1CC(C1)c1cc(F)c(C#C[C@@](C)(O)c3ncccn3)cc1-2` [Example 283, (R)-8-fluoro-9-(3-hydroxy-3-(pyrimidin-2-yl)but-1-yn-1-yl)-3-methyl-3,4,5,6-tetrahydro-4,6-methanobenzo[3,4]cyclo-hepta[1,2-d]imidazole-2-carboxamide], for which the Ki in test [1] (setting [4]) came to 0.00016 µM. Besides, the IC50 in test [2] amounted to 20000 nM; in test [3] it was 881 nM.
As to `CC(C)NC(=O)c1c(C(N)=O)nc2n1CCOc1ccc(C#C[C@]3(O)CCN(C)C3=O)cc1-2`, the Ki in test [1] (setting [4]) turned out to be 0.0012 µM. For the same compound, the IC50 in test [2] was above 20000 nM; in test [3], 316 nM.
The like results for `C[C@@](O)(C#Cc1ccc2c(c1)-c1nc(C(N)=O)c(-c3nc(C4CC4)n[nH]3)n1CCO2)c1ncccn1` were, in that order, 0.0072 µM, above 20000 nM and 2100 nM.
The like results for `Cc1cc([C@](C)(O)C#Cc2ccc3c(c2)-c2nc(C(N)=O)c(-c4cnn(CC(C)(C)O)c4)n2C2CC3C2)no1` were, in that order, 0.00059 µM, above 20000 nM and 934 nM.
The like results for `CNC(=O)c1c(C(N)=O)nc2n1CCOc1ccc(C#C[C@@](C)(O)c3noc(C)n3)cc1-2` [Example 98, 9-[(R)-3-hydroxy-3-(5-methyl-[1,2,4]ox-adiazol-3-yl)-but-1-ynyl]-4,5-dihydro-6-oxa-1,3a-diaza-benzo[e]azulene-2,3-di-carboxylic acid 2-amide 3-methylamide] were, in that order, 0.002 µM, 20000 nM and 237 nM.
As to `CNC(=O)c1c(C(N)=O)nc2n1C1CC(C1)c1ccc(C#C[C@@](C)(O)c3ccccn3)cc1-2`, the Ki in test [1] (setting [4]) is 0.0021 µM. Further, the IC50 in test [2] is above 20000 nM; in test [3] it was 830 nM.
The matching figures for `Cc1cc([C@](C)(O)C#Cc2ccc3c(c2)-c2nc(C(N)=O)c(C(F)(F)F)n2CCO3)no1` (racemic): 0.0049 µM, above 20000 nM and 4500 nM.
The like results for `CNC(=O)c1c(C(N)=O)nc2n1CCOc1ccc(C#CC3(O)CCC3)cc1-2` were, in that order, 0.0022 µM, above 20000 nM and 727 nM.
The matching figures for `CNC(=O)c1c(C(N)=O)nc2n1CCOc1cc(F)c(C#CC(C)(O)c3ccccn3)cc1-2` (stereo not drawn) [Example 180, 9-fluoro-10-[3-hydroxy-3-(2-pyridyl)but-1-ynyl]-N3-methyl-5,6-dihydroimi-dazo[1,2-d][1,4]benzoxazepine-2,3-dicarboxamide]: 0.0012 µM, above 20000 nM and 870 nM.
As to `CNC(=O)c1c(C(N)=O)nc2n1CCOc1ccc(C#CC(C)(O)c3ccccn3)cc1-2` (stereo not drawn), the Ki in test [1] (setting [4]) worked out at 0.0043 µM. Also, the IC50 in test [2] is above 20000 nM; in test [3] it was 1400 nM.
As to `CNC(=O)c1c(C(N)=O)nn2c1CCOc1ccc(C#C[C@]3(O)CCN(C)C3=O)cc1-2` (racemic) [Example 514], the Ki in test [1] (setting [4]) is 0.0012 µM. Further, the values for the IC50 in test [2] and in test [3] were above 20000 nM and 543 nM, respectively.
The matching figures for `Cc1cc([C@](C)(O)C#Cc2cc3c(cc2F)OCCn2cc(C(N)=O)nc2-3)no1` [Example 6, 8-fluoro-9-[(R)-3-hydroxy-3-(5-methyl-isoxazol-3-yl)-but-1-ynyl]-4,5-dihydro-6-oxa-1,3a-diaza-benzo[e]azulene-2-car-boxylic acid amide]: 0.0003 µM, 20000 nM and 135 nM.
The like results for `Cc1cc([C@](C)(O)C#Cc2cc3c(cc2F)C2CC(C2)n2c-3nc(C(N)=O)c2C)no1` were, in that order, 0.0013 µM, above 20000 nM and 385 nM.
The like results for `CNC(=O)c1c(C(N)=O)nc2n1C1CC(C1)c1ccc(C#C[C@@](C)(O)c3noc(C)n3)cc1-2` were, in that order, 0.0021 µM, 17500 nM and 3800 nM.
Regarding `Cc1cc([C@](C)(O)C#Cc2cc3c(cc2F)C2CC(C2)n2cc(C(N)=O)nc2-3)on1`, in test [1] (setting [4]), the Ki was determined as 0.0024 µM. The IC50 in test [2] is above 20000 nM; in test [3] it was 675 nM.
On to `Cc1cc([C@](C)(O)C#Cc2ccc3c(c2)-c2nc(C(N)=O)c(C(F)(F)F)n2C2CC3C2)no1`, for which, in test [1], the inhibition constant Ki is 0.0005 µM. In addition, the values for the IC50 in test [2] and in test [3] were 15100 nM and 511 nM, respectively.
For the compound `Cn1c(C(N)=O)nc2c1C1CC(C1)c1cc(F)c(C#CC(C)(C)O)cc1-2`, in test [1] (setting [4]), the Ki worked out at 0.0078 µM. Also, the 50% inhibitory concentration (IC50) is above 20000 nM in test [2] and 286 nM in test [3].
The like results for `CC(C)(O)C#Cc1cc2c(cc1F)OCCn1c-2nc(C(N)=O)c1-c1nc(-c2cccnc2)n[nH]1` [Example 172] were, in that order, 0.0004 µM, above 20000 nM and 1200 nM.
The like results for `Cc1nc2ccccc2n1Cc1c(C(N)=O)nc2n1C1CC(C1)c1ccc(C#C[C@]3(O)CCN(C)C3=O)cc1-2` were, in that order, 0.00087 µM, above 20000 nM and 2900 nM.
